These results are taken from patent US7189710B2, “C2-fluoro pyrrolo [2,1−c][1,4]benzodiazepine dimers” (Council of Scientific and Industrial Research, priority 2004, dated 2007).

One experiment deals with MCF7 (Breast). Put plainly: In vitro one dose primary anticancer assay. In kind it is cell-based, human. Particulars: one dose at 10^−4 molar concentration. As for the experimental part:
(§1) Biological Activity: In vitro biological activity studies were carried out at National Cancer Institute (USA).

For another experiment, the system named is NCI-H460 (Lung). Briefly: In vitro one dose primary anticancer assay. The experiment is classed as cell-based, human. The conditions noted are these: one dose at 10^−4 molar concentration. As for the experimental part:
as §1

A further experiment deals with SF-268 (CNS). Briefly: In vitro one dose primary anticancer assay. The experiment is classed as cell-based, human. The conditions noted are these: one dose at 10^−4 molar concentration. As for the experimental part: as §1
Another experiment relates to CNS cancer cell lines. Put plainly: NCI in vitro cytotoxicity, SRB assay, average per cancer type. In kind it is cell-based. The conditions noted are these: Homo sapiens; average of six to eight different cancer cell lines; read-out: Log GI50 (inhibitory concentration), CNS (converted). As for the experimental part: as §1
(§2) Cytotoxicity: Compounds IXa and IXc were evaluated for in vitro against sixty human tumour cells derived from nine cancer types (leukemia, non-small-cell lung, colon, CNS, melanoma, ovarian, prostate, and breast cancer). For each compound, dose response curves against each cell line were measured at a minimum of five concentrations at 10 fold dilutions. A protocol of 48 h continuous drug exposure was used and a sulforhodamine B (SRB) protein assay was used to estimate cell viability or growth. The concentration causing 50% cell growth inhibition (GI50), total cell growth inhibition (TGI, 0% growth) and 50% cell death (LC50, −50% growth) compared with the control was calculated.
(§3) Each cancer type represent the average of six to eight different cancer cell lines.

Experiment [1] deals with ovarian cancer cell lines. Described as above. In kind it is cell-based. The conditions noted are these: Homo sapiens; average of six to eight different cancer cell lines; read-out: Log GI50 (inhibitory concentration), ovarian (converted). As for the experimental part:
as §1, §2, §3

The test system of another experiment is renal cancer cell lines. Described as above. In kind it is cell-based. The conditions noted are these: Homo sapiens; average of six to eight different cancer cell lines; read-out: Log GI50 (inhibitory concentration), renal (converted). As for the experimental part: as §1, §2, §3
The test system of a further experiment is breast cancer cell lines. Described as above. In kind it is cell-based. Particulars: Homo sapiens; average of six to eight different cancer cell lines; read-out: Log GI50 (inhibitory concentration), breast (converted). As for the experimental part:
as §1, §2, §3

For experiment [2], the system named is leukemia cancer cell lines. The experiment is described as above. The experiment is classed as cell-based. Particulars: Homo sapiens; average of six to eight different cancer cell lines; read-out: Log GI50 (inhibitory concentration), leukemia (converted). As for the experimental part: as §1, §2, §3
Another experiment concerns colon cancer cell lines. The description is as above. The experiment is classed as cell-based. The conditions noted are these: Homo sapiens; average of six to eight different cancer cell lines; read-out: Log GI50 (inhibitory concentration), colon (converted). As for the experimental part: as §1, §2, §3
The test system of experiment [3] is melanoma cancer cell lines. Described as above. The experiment is classed as cell-based. Particulars: Homo sapiens; average of six to eight different cancer cell lines; read-out: Log GI50 (inhibitory concentration), melanoma (converted). As for the experimental part: as §1, §2, §3
Experiment [4] relates to non-small-cell lung cancer cell lines. The description is as above. The conditions noted are these: Homo sapiens; average of six to eight different cancer cell lines; read-out: Log GI50 (inhibitory concentration), non-small-cell lung (converted). The experiment is classed as cell-based. As for the experimental part: as §1, §2, §3
Experiment [5] deals with prostate cancer cell lines. The experiment is described as above. In kind it is cell-based. Particulars: Homo sapiens; average of six to eight different cancer cell lines; read-out: Log GI50 (inhibitory concentration), prostate (converted). As for the experimental part: as §1, §2, §3
In experiment [6] the test system is sixty human tumour cells derived from nine cancer types. Briefly: NCI in vitro cytotoxicity screen, sixty human tumour cell lines, SRB assay, 48 h (mean graph midpoints). The experiment is classed as cell-based. The conditions noted are these: 48 h continuous drug exposure, mean over human tumour cell lines; for Log10LC5O mean graph midpoint (MG_MID): 50% cell death (−50% growth); for GI50: 50% cell growth inhibition, read-out: Log10 GI50 mean graph midpoint (MG_MID) (converted); for Log10 TGI mean graph midpoint (MG_MID): total cell growth inhibition (0% growth). As for the experimental part: as §1, §2
On the technique in general: The SRB assay estimates cell density from bound dye.

With `COc1cc2c(cc1OCCCCCOc1cc3c(cc1OC)C(=O)N1C[C@@H](F)C[C@H]1C=N3)N=C[C@@H]1C[C@H](F)CN1C2=O` [IXc], in the experiment on MCF7 (Breast), the “Growth percentages (Breast) MCF7” value worked out at 0%. Moreover, the “Growth percentages (Lung) NCI-H460” value with NCI-H460 (Lung) came to 0%. In the experiment on SF-268 (CNS), the “Growth percentages (CNS) SF-268” value worked out at 0%. Also, the GI50 was 23.7 nM in the experiment with CNS cancer cell lines; 240 nM in experiment [1]; 32.2 nM in the experiment with renal cancer cell lines; 58.3 nM with breast cancer cell lines; 16.1 nM in experiment [2]; 86.3 nM in the experiment on colon cancer cell lines. The GI50 in experiment [3] is 50 nM; in experiment [4], 48.1 nM; in experiment [5], 37.2 nM; in [6], 72.4 nM. Moreover, the “Log10LC5O mean graph midpoint (MG_MID)” value in [6] is −4.87. The “Log10 TGI mean graph midpoint (MG_MID)” value in experiment [6] was −6.27.

On to `COc1cc2c(cc1OCCCOc1cc3c(cc1OC)C(=O)N1C[C@@H](F)C[C@H]1C=N3)N=C[C@@H]1C[C@H](F)CN1C2=O` [IXa], for which, in the experiment with MCF7 (Breast), the “Growth percentages (Breast) MCF7” value is listed as 0%. The “Growth percentages (Lung) NCI-H460” value in the experiment with NCI-H460 (Lung) was found to be 0%. The “Growth percentages (CNS) SF-268” value in the experiment with SF-268 (CNS) came out at 0%. Also, the GI50 with CNS cancer cell lines is 2860 nM; in [1], 4900 nM; in the experiment on renal cancer cell lines it was 4840 nM; in the experiment with breast cancer cell lines, 3240 nM; in experiment [2] it was 2150 nM; in the experiment on colon cancer cell lines, 5190 nM. Also, the GI50 in [3] was 3240 nM; in experiment [4], 5520 nM; in experiment [5] it was 6610 nM; in experiment [6] it was 6170 nM. In addition, the “Log10LC5O mean graph midpoint (MG_MID)” value in experiment [6] is reported as −4.31. For the same compound, in experiment [6], the “Log10 TGI mean graph midpoint (MG_MID)” value is −4.75.
